# Experiment: Plasma pharmacokinetics
# Type: in vivo, Sprague-Dawley rats
# Conditions: rat plasma, any confection treatment (CDK, CHS, CMP)
row,Structure (SMILES),Detection in plasma (HPLC-MS)
1,"Oc1cc(O)c2c(c1)OC(c1ccc(O)c(O)c1)C(O)C2 (racemic) [(±)-C, (±)-catechin]","No intact (±)-C, (±)-C/EC sulfated metabolites or unconjugated O-Me-(±)-C/EC metabolites were detected in the plasma"
2,"Oc1cc(O)c2c(c1)O[C@H](c1ccc(O)c(O)c1)[C@H](O)C2 (racemic) [(±)-EC, (−)-epicatechin]",minor component in blood
